Assay results as given in US20070016970A1, “Guinea pig-chymase” (priority 2005, published 2007).
Where two headings read alike, the source gives them in different places.

What was measured:
Human Chymase coli = biological target: T1, Human Chymase coli (Homo sapiens, UniProt P23946); assay: Assay for chymase inhibition (fluorogenic AAPF-AMC substrate), human chymase; format: biochemical
T1 construct: Chymase purified from human skin mast cells was obtained from Calbiochem; purchased Calbiochem (Merck Biosciences, San Diego, Calif., USA); host or cells: human skin mast cells
T1 sequence (P23946 22-247): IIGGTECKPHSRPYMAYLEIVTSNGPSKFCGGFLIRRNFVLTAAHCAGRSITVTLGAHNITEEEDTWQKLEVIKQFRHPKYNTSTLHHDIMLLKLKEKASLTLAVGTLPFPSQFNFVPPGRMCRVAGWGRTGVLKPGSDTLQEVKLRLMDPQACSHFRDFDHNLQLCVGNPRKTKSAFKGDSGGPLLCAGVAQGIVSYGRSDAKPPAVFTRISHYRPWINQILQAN
Description: The peptide was synthesized with a purity of 95% from Bachem, Bubendorf, Switzerland). Chymase purified from human skin mast cells was obtained from Calbiochem (Merck Biosciences, San Diego, Calif., USA). The assay buffer was 0.15 M NaCl, 0.05M, Tris HCl, 0.05% CHAPS, 0.1 mg/ml Heparin (Heparin sodium, Sigma, porcine intestinal mucosa), 0.02mM AAPF-substrate, 1 nM Chymase at pH 7.4. The assay was performed in 96-well plates (Packard Optiplate), with a 0.05 ml volume at room temperature. Chymase activity was indicated by the initial rate of increase in fluorescence at 340/440 nm (excitation/emission) from free 7-amino-4-methylcoumarin released from the substrate. Inhibition of the activity by inhibitory compounds was read after 30 min pre-incubation with the chymase at room temperature in assay buffer without AAPF-substrate. The assay was then started by addition of the indicated concentration of AAPF-substrate.

guinea pig chymase = biological target: T2, guinea pig chymase (Cavia porcellus, UniProt A7WPL7, G52S); assay: Assay for chymase inhibition (fluorogenic AAPF-AMC substrate), guinea pig chymase; format: biochemical; details: recombinant guinea pig chymase; 0.02 mM AAPF-substrate, 1 nM chymase, pH 7.4, 30 min pre-incubation, room temperature; read-out: Inhibition of guinea pig chymase activity, IC50, GP chymase
T2 construct: Thereby the mature guinea pig chymase with the correct N-terminus was formed; 26-amino acid N-terminal polypeptide with 6xHis tag and enterokinase cleavage site (N, cleaved yes); made in house
T2 sequence (A7WPL7 22-247 G52S): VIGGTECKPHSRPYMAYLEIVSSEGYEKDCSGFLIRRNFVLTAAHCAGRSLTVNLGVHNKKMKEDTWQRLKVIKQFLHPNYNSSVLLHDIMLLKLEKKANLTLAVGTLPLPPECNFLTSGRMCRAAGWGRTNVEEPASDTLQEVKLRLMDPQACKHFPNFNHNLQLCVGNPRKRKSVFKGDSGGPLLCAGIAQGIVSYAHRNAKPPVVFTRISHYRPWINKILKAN

SMILES	IC50 (Human Chymase coli)	IC50 (guinea pig chymase)	IC50 (Human Chymase coli; human chymase, 0.02 mM AAPF-substrate, 1 nM chymase, pH 7.4, 30 min pre-incubation, room temperature, read-out: Inhibition of chymase activity, IC50, Human Chymase coli)
COC(=O)c1ccc(NS(=O)(=O)c2sc3ccc(F)cc3c2C)c(S(C)(=O)=O)c1 [TY-51076, 4-(5-Fluoro-3-methyl-benzothiophene-2-sulfonylamino)-3-methanesulfonyl-benzoic acid methyl ester]	590 nM	345 nM	
CC(=O)NCCc1c(C(c2ccccc2)c2c(O)c3ccccc3n(C)c2=O)[nH]c2ccccc12 (stereo not shown) [SF2809-V, N-(2-{2-[(4-Hydroxy-1-methyl-2-oxo-1,2-dihydro-quinolin-3-yl)-phenyl-methyl]-1H-indol-3-yl}-ethyl)-acetamide]		940 nM	570 nM
